# Data from patent publication US7919517B2, “Indazole derivatives” (Kyowa Hakko Kirin Co., Ltd., priority 2003, dated 2011).
# Where a name gives a salt, the structure may show the parent alone.
# Legend:
# Type in all cases: cell-based
# [1] = test system: human acute myeloid leukemia cell line ML-1; experiment: Cytostatic activity on leukemia cell line ML-1 (WST-1); settings: 72 hours, ML-1 cells; for inhibition at 10 µM: Homo sapiens, ML1, 10 μmol/L, read-out: cytostatic rate ML-1 (%) (10 μmol/L)
# Procedure: (§1) The cytostatic rates of a test compound on human acute myeloid leukemia cell lines MV-4-11 and ML-1, and human chronic myeloid leukemia cell line K562 were determined in the following manner.
# (§2) Each cell was cultured using Roswell Park Memorial Institute's Medium (RPMI) 1640 (Gibco, Catalog No. 11875-093) containing 10% fetal bovine serum (Gibco, Catalog No. 10437-028) and 1% penicillin/streptomycin (1:1) (Gibco, Catalog No. 15140-122). Each 80 μL of the MV-4-11 cell having a concentration of 7.5×10^4 cells/mL (or the ML-1 cell or K562 cell having a concentration of 2.5×10^4 cells/mL) was inoculated to wells of a TC MICROWELL 96U plate (Nalge Nunc International, Catalog No. 163320) and was cultured in a 5% carbon dioxide gas incubator at 37° C. for 4 hours. As a blank, only RPMI medium (80 μL) was added to a well. Each 20 μL of a solution of the test compound in dimethyl sulfoxide (DMSO) which was prepared to make the final concentration to 10 μmol/L, was added to the MV-4-11 cell, ML-1 cell and K562 cell, respectively. Each 20 μL of DMSO was added to the control well and the blank well to […]. After adding the test compound, the cells were incubated in a 5% carbon dioxide gas incubator at 37° C. for 72 hours. After adding 20 μL of WST-1 reagent {4-[3-(4-iodophenyl)-2-(4-nitrophenyl)-2H-5-tetrazolio]-1,3-benzene disulfonate sodium salt} (Roche Diagnostics K.K., Catalog No. 1644807) diluted to 50% with RPMI medium, the cells were further incubated at 37° C. for 2 hours. Then, the absorbances at 450 nm (reference wavelength: 690 nm) were determined with a microplate spectrophotometer SPECTRA max 340PC (Molecular Devices Corporation). The relative growth (%) of a well to which the test compound had been added was determined while setting the absorbance of a well to which not the test compound but DMSO alone had been added (control) at 100% and that of a well containing RPMI medium alone at 0%. The cytostatic rate (%) of the test compound was determined by subtracting the calculated relative growth from 100.
# [2] = test system: human colon cancer cell line Colo205; experiment: Cytostatic activity on solid carcinoma cell line Colo205 (WST-1); settings: Homo sapiens, COLO 205; 10 μmol/L, 72 hours, Colo205 cells; read-out: cytostatic rate Colo205 (%) (10 μmol/L)
# Procedure: as §2
# The cytostatic rate of a test compound on the human colon cancer cell line Colo205 was determined in the following manner.
# The cell was cultured using Roswell Park Memorial Institute's Medium (RPMI) 1640 (Gibco, Catalog No. 11875-093) containing 10% fetal bovine serum (Gibco, Catalog No. 10437-028) and 1% penicillin/streptomycin (1:1) (Gibco, Catalog No. 15140-122). Each 80 μL of the Colo205 having a concentration of 1.25×10^4 cells/mL was inoculated to wells of a TC MICROWELL 96F plate (Nalge Nunc International, Catalog No. 167008) and was cultured in a 5% carbon dioxide gas incubator at 37° C. for 24 hours. As a blank, only RPMI (80 μL) was added to a well. Each 20 μL of a solution of the test compound in DMSO which was prepared to make the final concentration to 10 μmol/L, was added to the Colo205 cell. Each 20 μL of DMSO was added to the control well and the blank well to […]. After adding the test compound, the cell was incubated in a 5% carbon dioxide gas incubator at 37° C. for 72 hours. The cytostatic rate (%) was then determined in the same way as the leukemia cell lines.
# [3] = test system: human chronic myeloid leukemia cell line K562; experiment: Cytostatic activity on leukemia cell line K562 (WST-1); settings: 72 hours, K562 cells; for inhibition at 10 µM: Homo sapiens, 10 μmol/L, read-out: cytostatic rate K562 (%) (10 μmol/L)
# Procedure: as §1, §2
# [4] = test system: human acute myeloid leukemia cell line MV-4-11; experiment: Cytostatic activity on leukemia cell line MV-4-11 (WST-1); settings: 72 hours, MV-4-11 cells; for inhibition at 10 µM: Homo sapiens, MV4-11, 10 μmol/L, read-out: cytostatic rate MV-4-11 (%) (10 μmol/L)
# Procedure: as §1, §2
SMILES,inhibition at 10 µM [1] [%],inhibition at 10 µM [2] [%],inhibition at 10 µM [3] [%],inhibition at 10 µM [4] [%],cytostatic rate ML-1 (%) (10 μmol/L) [1],cytostatic rate K562 (%) (10 μmol/L) [3],cytostatic rate MV-4-11 (%) (10 μmol/L) [4]
"CC(C)(O)CC(=O)N1CCN(C(=O)c2ccc(/C=C/c3n[nH]c4ccccc34)cc2)CC1 [Compound 90, (E)-4-(3-methyl-3-hydroxybutyryl)-1-{4-[2-(1H-indazol-3-yl)vinyl]benzoyl}piperazine]",79,88,85,98,,,
"CC(CO)(CO)C(=O)N1CCN(C(=O)c2ccc(/C=C/c3n[nH]c4ccccc34)cc2)CC1 [Compound 136, (E)-4-(3-hydroxy-2-hydroxymethyl-2-methylpropionyl)-1-{4-[2-(1H-indazol-3-yl)vinyl]benzoyl}piperazine hydrochloride]",82,91,94,99,,,
"O=C(c1ccc(/C=C/c2n[nH]c3ccccc23)cc1)N1CCN(C(=O)C2CC2)CC1 [Compound 55, (E)-4-cyclopropanecarbonyl-1-{4-[2-(1H-indazol-3-yl)vinyl]benzoyl}piperazine]",83,89,81,97,,,
"CN(C)CC(=O)N1CCN(C(=O)c2ccc(/C=C/c3n[nH]c4ccccc34)cc2)CC1 [Compound 125, (E)-4-dimethylaminoacetyl-1-{4-[2-(1H-indazol-3-yl)vinyl]benzoyl}piperazine]",79,86,91,98,,,
"CC(=O)N1CCN(C(=O)c2ccc(/C=C/c3n[nH]c4ccccc34)cc2)CC1 [Compound 13, (E)-4-Acetyl-1-{4-[2-(1H-indazol-3-yl)vinyl]benzoyl}piperazine]",90,,99,94,,,
"CCC(C)N1CCN(C(=O)c2ccc(/C=C/c3n[nH]c4ccccc34)cc2)CC1=O (stereo not shown) [Compound 116, (E)-4-{4-[2-(1H-indazol-3-yl)vinyl]benzoyl}-1-(sec-butyl)piperazin-2-one hydrochloride]",79,91,88,98,,,
"O=C(c1ccc(/C=C/c2n[nH]c3ccccc23)cc1)N1CCN(C(=O)[C@@H]2CCCN2)CC1 [Compound 140, (S)-(E)-4-[(pyrrolidin-2-yl)carbonyl]-1-{4-[2-(1H-indazol-3-yl)vinyl]benzoyl}piperazine]",82,85,95,99,,,
"CC(C)C(=O)N1CCN(C(=O)c2ccc(/C=C/c3n[nH]c4ccccc34)cc2)CC1 [Compound 56, (E)-4-isobutyryl-1-{4-[2-(1H-indazol-3-yl)vinyl]benzoyl}piperazine]",78,88,87,98,,,
"NC(=O)C1CCN(C(=O)c2ccc(/C=C/c3n[nH]c4ccccc34)cc2)CC1 [Compound 86, (E)-1-{4-[2-(1H-indazol-3-yl)vinyl]benzoyl}piperidine-4-carboxamide]",87,89,88,98,,,
"O=C(c1ccc(/C=C/c2n[nH]c3ccccc23)cc1)N1CCN(C(=O)c2ccsc2)CC1 [Compound 58, (E)-4-(3-thiophenecarbonyl)-1-{4-[2-(1H-indazol-3-yl)vinyl]benzoyl}piperazine]",74,85,89,96,,,
"NC1CCN(C(=O)c2ccc(/C=C/c3n[nH]c4ccccc34)cc2)CC1 [Compound 64, (E)-1-{4-[2-(1H-indazol-3-yl)vinyl]benzoyl}-4-aminopiperidine]",89,94,91,98,,,
"NC(=O)c1cc(/C=C/c2n[nH]c3ccccc23)ccc1OCCN1CCOCC1 [Compound 8, (E)-5-[2-(1H-Indazol-3-yl)vinyl]-2-(2-morpholinoethoxy)benzamide]",84,,95,95,,,
"CCOC(=O)N1CCN(C(=O)c2ccc(/C=C/c3n[nH]c4ccccc34)cc2)CC1 [Compound 32, (E)-1-{4-[2-(1H-indazol-3-yl)vinyl]benzoyl}-4-ethoxycarbonylpiperazine]",80,85,86,94,,,
"COCCC(=O)N1CCN(C(=O)c2ccc(/C=C/c3n[nH]c4ccccc34)cc2)CC1 [Compound 98, (E)-4-(3-methoxypropionyl)-1-{4-[2-(1H-indazol-3-yl)vinyl]benzoyl}piperazine]",79,88,89,98,,,
"CC(=O)N1CCN(C(=O)c2ccc(/C=C/c3n[nH]c4ccccc34)cc2C)CC1 [Compound 73, (E)-4-acetyl-1-{2-methyl-4-[2-(1H-indazol-3-yl)vinyl]benzoyl}piperazine]",87,89,68,97,,,
"CN1CCC(C(=O)N2CCN(C(=O)c3ccc(/C=C/c4n[nH]c5ccccc45)cc3)CC2)CC1 [Compound 143, (E)-4-[(1-methylpiperidin-4-yl)carbonyl]-1-{4-[2-(1H-indazol-3-yl)vinyl]benzoyl}piperazine]",84,92,95,100,,,
"CNCCNC(=O)c1ccc(/C=C/c2n[nH]c3ccccc23)cc1 [Compound 112, (E)-N-[2-(methylamino)ethyl]-4-[2-(1H-indazol-3-yl)vinyl]benzamide hydrochloride]",83,88,81,98,,,
"CC(C)(C)C(=O)N1CCN(C(=O)c2ccc(/C=C/c3n[nH]c4ccccc34)cc2)CC1 [Compound 40, (E)-1-{4-[2-(1H-indazol-3-yl)vinyl]benzoyl}-4-(pivaloyl)piperazine]",67,88,96,98,,,
"CNC(=O)c1ccc(/C=C/c2n[nH]c3ccccc23)cc1 [Compound 14, (E)-N-Methyl-4-[2-(1H-indazol-3-yl)vinyl]benzamide]",84,,98,76,,,
"O=C(c1ccc(/C=C/c2n[nH]c3ccccc23)cc1)N1CCOCC1 [Compound 9, (E)-1{4-[2-(1H-indazol-3-yl)vinyl]benzoyl}morpholine]",,,,,90,98,91
"Cl.O=C(c1ccc(/C=C/c2n[nH]c3ccccc23)cc1)N1CCC2(CC1)OCCO2 [Compound 16, (E)-4-ethylenedioxy-1-{4-[2-(1H-indazol-3-yl)vinyl]benzoyl}piperidine hydrochloride]",,,,,97,94,89
"CN(C)C(=O)c1ccc(/C=C/c2n[nH]c3ccccc23)cc1 [Compound 1, (E)-N,N-Dimethyl-4-[2-(1H-indazol-3-yl)vinyl]benzamide]",93,,95,98,,,
